According to patent US20220348592A1, “FUSED HETEROCYCLIC DERIVATIVES” (Janssen Sciences Ireland Unlimited Company, priority 2019, published 2022):
Where two headings read alike, the source gives them in different places.

Legend:
[1] = test system: HBV; experiment: Anti-HBV activity: intracellular HBV DNA by real-time PCR in HepG2.117 cell line; assay type: cell-based, Hepatitis B virus; conditions: Hepatitis B virus, read-out: HBV-AVE-HepG2.117 EC50 (μM, mean value)
Description: The anti HBV activity was measured using the HepG2.117 cell line, a stable, inducibly HBV producing cell line, which replicates HBV in the absence of doxicycline (Tet-off system). The HepG2 cell line is available from ATCC® under number HB-8065. Transfection of the HepG2 cell line can be as described in Sun and Nassal 2006 Journal of Hepatology 45 (2006) 636-645 “Stable HepG2- and Huh7-based human hepatoma cell lines for efficient regulated expression of infectious hepatitis B virus”.
For the antiviral assay, HBV replication was induced, followed by a treatment with serially diluted compound in 96-well plates. After 3 days of treatment, the antiviral activity was determined by quantification of intracellular HBV DNA using real-time PCR and an HBV specific primer set and probe.

[2] = Cytotoxicity in HepG2.117 cells, ATPlite Luminescence Assay; assay type: cell-based, human; conditions: human, incubated for 3 days, mean value, read-out: TOX-HepG2.117 CC50 (μM, mean value)
Description: Cytotoxicity of the compounds was tested using HepG2 or HepG2.117 cells, incubated for 3 days in the presence of compounds. The viability of the cells was assessed using the PERKIN ELMER ATPlite Luminescence Assay System.”

[3] = 72 h, HepG2.117 cells, 3 days of treatment, intracellular HBV DNA by real-time PCR, mean value

Row | SMILES | EC50 [1, 3] | CC50 at 3 days [2] | EC50 ([1]; HepG2.117, 72 h)
1 | C[C@@H]1Cc2nn3c(c2CN1C(=O)c1ccc(Cl)c(Cl)c1)C(=O)N([C@H](C)c1ccc(C#N)cc1)CC3 (relative stereo) [C88*R] | 0.076 µM | > 50 µM | –
2 | C[C@@H]1Cc2nn3c(c2CN1C(=O)c1ccc(Cl)c(Cl)c1)C(=O)N([C@@H](C)c1ccc(C#N)cc1)CC3 (relative stereo) [C88*S] | 0.023 µM | > 50 µM | –
3 | C[C@@H]1Cc2nn3c(c2CN1C(=O)c1ccc(Cl)c(Cl)c1)C(=O)N([C@H](C)c1ccc(C(F)(F)F)cc1)CC3 (relative stereo) [C105*R] | 0.059 µM | 14.6 µM | –
4 | C[C@@H]1Cc2nn3c(c2CN1C(=O)c1ccc(Cl)c(Cl)c1)C(=O)N([C@@H](C)c1ccc(C(F)(F)F)cc1)CC3 (relative stereo) [C105*S] | 0.297 µM | > 50 µM | –
5 | C[C@@H]1Cc2nn3c(c2CN1C(=O)c1ccc(Cl)c(Cl)c1)C(=O)N([C@@H](C)c1ccccc1C(F)(F)F)CC3 (relative stereo) [C123*R] | 0.174 µM | 20 µM | –
6 | C[C@@H]1Cc2nn3c(c2CN1C(=O)c1ccc(Cl)c(Cl)c1)C(=O)N([C@H](C)c1ccccc1C(F)(F)F)CC3 (relative stereo) [C123*S] | 0.517 µM | 19.2 µM | –
7 | C[C@@H]1Cc2nn3c(c2CN1C(=O)c1ccc(Cl)c(Cl)c1)C(=O)N([C@H](C)c1c[nH]nn1)CC3 (single isomer, unassigned) [Compound 31, (3R)-2-(3,4-Dichlorobenzoyl)-3-methyl-9-[(1*R)-1-(1H-1,2,3-triazol-4-yl)ethyl]-1,2,3,4,8,9-hexahydropyrido[4′,3′:3,4]pyrazolo[1,5-a]pyrazin-10(7H)-one] | 0.075 µM | > 50 µM | –
8 | C[C@@H]1Cc2nn3c(c2CN1C(=O)c1ccc(Cl)c(Cl)c1)C(=O)N([C@@H](C)c1c[nH]nn1)CC3 (single isomer, unassigned) [Compound 32, (3R)-2-(3,4-Dichlorobenzoyl)-3-methyl-9-[(1*S)-1-(1H-1,2,3-triazol-4-yl)ethyl]-1,2,3,4,8,9-hexahydropyrido[4′,3′:3,4]pyrazolo[1,5-a]pyrazin-10(7H)-one] | 0.332 µM | > 50 µM | –
9 | CN1O[C@@H](CO)Cn2nc3c(c2C1=O)CN(C(=O)c1ccc(Cl)c(Cl)c1)CC3 (single isomer, unassigned) [Compound 45, (4*R)-10-(3,4-Dichlorobenzoyl)-4-(hydroxymethyl)-2-methyl-4,5,8,9,10,11-hexahydropyrido-[4′,3′:3,4]pyrazolo[5,1-d][1,2,5]oxadiazepin-1(2H)-one] | 0.192 µM | > 50 µM | –
10 | CN1O[C@H](CO)Cn2nc3c(c2C1=O)CN(C(=O)c1ccc(Cl)c(Cl)c1)CC3 (single isomer, unassigned) [Compound 46, (4*S)-10-(3,4-Dichlorobenzoyl)-4-(hydroxymethyl)-2-methyl-4,5,8,9,10,11-hexahydropyrido-[4′,3′:3,4]pyrazolo[5,1-d][1,2,5]oxadiazepin-1(2H)-one] | 0.505 µM | > 50 µM | –
11 | O=C1NCCn2nc3c(c21)CN(C(=O)c1ccc(Cl)c(Cl)c1)CC3 [Compound 1, 2-(3,4-Dichlorobenzoyl)-1,2,3,4,8,9-hexahydropyrido[4′,3′:3,4]pyrazolo[1,5-a]pyrazin-10(7H)-one] | 9.63 µM | > 50 µM | –
12 | O=C(c1ccc(Cl)c(Cl)c1)N1CCc2nn3c(c2C1)C(=O)N(Cc1ccccc1)CC3 [Compound 3, 9-Benzyl-2-(3,4-dichlorobenzoyl)-1,2,3,4,8,9-hexahydropyrido[4′,3′:3,4]pyrazolo[1,5-a]pyrazin-10(7H)-one] | – | 25.3 µM | 0.188 µM
13 | COc1ccc(CN2CCn3nc4c(c3C2=O)CN(C(=O)c2ccc(Cl)c(Cl)c2)CC4)cc1 [Compound 4, 2-(3,4-Dichlorobenzoyl)-9-[(4-methoxyphenyl)methyl]-1,2,3,4,8,9-hexahydropyrido[4′,3′:3,4]-pyrazolo[1,5-a]pyrazin-10(7H)-one] | 0.091 µM | 17.9 µM | –
14 | CC(c1ccncc1)N1CCn2nc3c(c2C1=O)CN(C(=O)c1ccc(Cl)c(Cl)c1)CC3 (centres unmarked) [Compound 5, 2-(3,4-Dichlorobenzoyl)-9-[1-(pyridin-4-yl)ethyl]-1,2,3,4,8,9-hexahydropyrido[4′,3′:3,4-]pyrazolo[1,5-a]pyrazin-10(7H)-one] | 0.213 µM | > 50 µM | –
15 | O=C(c1ccc(Cl)c(Cl)c1)N1CCc2nn3c(c2C1)C(=O)N(Cc1nccs1)CC3 [Compound 7, 2-(3,4-Dichlorobenzoyl)-9-[(1,3-thiazol-2-yl)methyl]-1,2,3,4,8,9-hexahydropyrido[4′,3′:3,4]-pyrazolo[1,5-a]pyrazin-10(7H)-one] | 0.399 µM | > 50 µM | –
16 | O=C(c1ccc(Cl)c(Cl)c1)N1CCc2nn3c(c2C1)C(=O)N(Cc1c[nH]c2ccccc12)CC3 [Compound 8, 2-(3,4-Dichlorobenzoyl)-9-[(1H-indol-3-yl)methyl]-1,2,3,4,8,9-hexahydropyrido[4′,3′:3,4]-pyrazolo[1,5-a]pyrazin-10(7H)-one] | < 0.039 µM | 10.8 µM | –
17 | O=C(c1ccc(Cl)c(Cl)c1)N1CCc2nn3c(c2C1)C(=O)N(Cc1cccc2[nH]ccc12)CC3 [Compound 9, 2-(3,4-Dichlorobenzoyl)-9-[(1H-indol-4-yl)methyl]-1,2,3,4,8,9-hexahydropyrido[4′,3′:3,4]-pyrazolo[1,5-a]pyrazin-10(7H)-one] | 0.054 µM | 16.4 µM | –
18 | O=C(c1ccc(Cl)c(Cl)c1)N1CCc2nn3c(c2C1)C(=O)N(Cc1ccc(OC(F)F)cc1)CC3 [Compound 10, 2-(3,4-Dichlorobenzoyl)-9-{[4-(difluoromethoxy)phenyl]methyl}-1,2,3,4,8,9-hexahydropyrido-[4′,3′:3,4]pyrazolo[1,5-a]pyrazin-10(7H)-one] | 0.062 µM | 7.26 µM | –
19 | COc1ccc(CN2CCn3nc4c(c3C2=O)CN(C(=O)c2ccc(Cl)c(Cl)c2)[C@H](C)C4)cc1 [Compound 11, (3R)-2-(3,4-Dichlorobenzoyl)-9-[(4-methoxyphenyl)methyl]-3-methyl-1,2,3,4,8,9-hexahydro-pyrido[4′,3′:3,4]pyrazolo[1,5-a]pyrazin-10(7H)-one] | 0.054 µM | 8.43 µM | –
20 | C[C@@H]1Cc2nn3c(c2CN1C(=O)c1ccc(Cl)c(Cl)c1)C(=O)N(Cc1ccc(F)cc1)CC3 [Compound 12, (3R)-2-(3,4-Dichlorobenzoyl)-9-[(4-fluorophenyl)methyl]-3-methyl-1,2,3,4,8,9-hexahydro-pyrido[4′,3′:3,4]pyrazolo[1,5-a]pyrazin-10(7H)-one] | 0.066 µM | 25.3 µM | –
21 | C[C@@H]1Cc2nn3c(c2CN1C(=O)c1ccc(Cl)c(Cl)c1)C(=O)N(Cc1ccc(OC(F)F)cc1)CC3 [Compound 13, (3R)-2-(3,4-Dichlorobenzoyl)-9-{[4-(difluoromethoxy)phenyl]methyl}-3-methyl-1,2,3,4,8,9-hexahydropyrido[4′,3′:3,4]pyrazolo[1,5-a]pyrazin-10(7H)-one] | 0.055 µM | – | –
22 | C[C@@H]1Cc2nn3c(c2CN1C(=O)c1ccc(Cl)c(Cl)c1)C(=O)N(Cc1ccc(OC(F)(F)F)cc1)CC3 [Compound 14, (3R)-2-(3,4-Dichlorobenzoyl)-3-methyl-9-{[4-(trifluoromethoxy)phenyl]methyl}-1,2,3,4,8,9-hexahydropyrido[4′,3′:3,4]pyrazolo[1,5-a]pyrazin-10(7H)-one] | 0.085 µM | 6.96 µM | –
23 | C[C@@H]1Cc2nn3c(c2CN1C(=O)c1ccc(Cl)c(Cl)c1)C(=O)N(Cc1ccccn1)CC3 [Compound 15, (3R)-2-(3,4-Dichlorobenzoyl)-3-methyl-9-[(pyridin-2-yl)methyl]-1,2,3,4,8,9-hexahydropyrido-[4′,3′:3,4]pyrazolo[1,5-a]pyrazin-10(71)-one] | 0.055 µM | > 50 µM | –
24 | C[C@@H]1Cc2nn3c(c2CN1C(=O)c1ccc(Cl)c(Cl)c1)C(=O)N(Cc1cccnc1)CC3 [Compound 16, (3R)-2-(3,4-Dichlorobenzoyl)-3-methyl-9-[(pyridin-3-yl)methyl]-1,2,3,4,8,9-hexahydropyrido-[4′,3′:3,4]pyrazolo[1,5-a]pyrazin-10(7H)-one] | 0.079 µM | > 50 µM | –
25 | C[C@@H]1Cc2nn3c(c2CN1C(=O)c1ccc(Cl)c(Cl)c1)C(=O)N(Cc1ccncc1)CC3 [Compound 17, (3R)-2-(3,4-Dichlorobenzoyl)-3-methyl-9-[(pyridin-4-yl)methyl]-1,2,3,4,8,9-hexahydropyrido-[4′,3′:3,4]pyrazolo[1,5-a]pyrazin-10(7H)-one] | – | > 50 µM | 0.436 µM
26 | C[C@@H]1Cc2nn3c(c2CN1C(=O)c1ccc(Cl)c(Cl)c1)C(=O)N(Cc1cccc2c1ccn2C)CC3 [Example C120] | 0.047 µM | – | –
27 | COc1ccc(CN2CCn3nc4c(c3C2=O)CN(C(=O)c2ccc(Cl)c(Cl)c2)[C@H](C)C4)cc1F [Example C140] | 0.032 µM | – | –
28 | COc1cc(CN2CCn3nc4c(c3C2=O)CN(C(=O)c2ccc(Cl)c(Cl)c2)[C@H](C)C4)ccc1OC(F)F [Example C205] | 0.04 µM | – | –
29 | Cc1ccc(CN2CCn3nc4c(c3C2=O)CN(C(=O)c2ccc(Cl)c(Cl)c2)[C@H](C)C4)c(F)c1 [Example C206] | 0.038 µM | – | –
